{"source": "patent US20230045421A1", "about": "(priority 2018, published 2023)", "test_system": "HBV rcDNA", "test": "HepDE19 assay with bDNA quantitation of HBV rcDNA", "format": "cell-based, hepatitis B virus", "how_it_was_run": "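Compounds, top concentration 25 μM in 8-point duplicate series, were applied to Tet-free HepDE19 cultures for 7 days. Branched-DNA quantitation of HBV rcDNA against untreated wells gave EC50 and EC90 by 4-parameter fit. Viability (CC50) came from ATP luminescence on parallel plates incubated 4 days.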", "key": {"[1]": {"conditions": "HepDE19 assay, inhibition of formation of relaxed circular DNA (rcDNA), bDNA quantitation, read-out: DE-19bDNA EC50"}, "[2]": {"conditions": "HepDE19 assay, inhibition of formation of rcDNA, read-out: DE-19bDNA EC50"}, "[3]": {"conditions": "Hepatitis B virus, HepDE19, HepDE19 assay, inhibition of formation of rcDNA, read-out: DE-19bDNA EC50"}, "[4]": {"conditions": "read-out: DE-19bDNA EC50, HepDE19 assay, inhibition of formation of relaxed circular DNA (rcDNA), bDNA quantitation"}}, "note": "Read-outs that look alike come from different tables or passages of the source."}
{"compound": "COCCN(C(=O)Nc1ccc(F)c(Cl)c1)C(C)c1c[nH]c(=O)c2ccccc12", "note": "(single isomer, unassigned) [Compound 65, 3-(3-Chloro-4-fluorophenyl)-1-(2-methoxyethyl)-1-(1-(1-oxo-1,2-dihydroisoquinolin-4-yl)ethyl)urea]", "values": [{"measurement": "EC50", "setting": "read-out: DE-19bDNA EC50, HepDE19 assay, inhibition of formation of rcDNA", "result": 10, "unit": "µM"}]}
{"compound": "CNC(=O)c1ncc(C(C)N(C)C(=O)Nc2ccc(F)c(Cl)c2)c2ccccc12", "note": "(single isomer, unassigned) [Compound 317, 4-(1-(3-(3-Chloro-4-fluorophenyl)-1-methylureido)ethyl)-N-methylisoquinoline-1-carboxamide]", "values": [{"measurement": "EC50", "setting": "[1]", "result": 0.077, "unit": "µM"}]}
{"compound": "CC(c1c[nH]c(=O)c2c(F)c(F)ccc12)N(C)C(=O)Nc1ccc(F)c(C#N)c1", "note": "(single isomer, unassigned) [Compound 471, 3-(3-Cyano-4-fluorophenyl)-1-(1-(7,8-difluoro-1-oxo-1,2-dihydroisoquinolin-4-yl)ethyl)-1-methylurea]", "values": [{"measurement": "EC50", "setting": "[1]", "result": 0.02, "unit": "µM"}]}
{"compound": "COc1ncc(C(CCO)NC(=O)Nc2ccc(F)c(Cl)c2)c2ccccc12", "note": "(single isomer, unassigned) [Compound 78, 1-(3-Chloro-4-fluorophenyl)-3-(3-hydroxy-1-(1-methoxyisoquinolin-4-yl)propyl)urea]", "values": [{"measurement": "EC50", "setting": "[2]", "result": 24, "unit": "µM"}]}
{"compound": "COCCCN(Cc1cnc(OC)c2ccccc12)C(=O)Nc1ccc(F)c(Cl)c1", "note": "[Compound 47, 3-(3-Chloro-4-fluorophenyl)-1-((1-methoxyisoquinolin-4-yl)methyl)-1-(3-methoxypropyl)urea]", "values": [{"measurement": "EC50", "setting": "[3]", "result": 2, "unit": "µM"}]}
{"compound": "CC(c1c[nH]c(=O)c2cc(F)c(F)cc12)N(CCCO)C(=O)Nc1ccc(F)cc1", "note": "(single isomer, unassigned) [Compound 292, 1-(1-(6,7-Difluoro-1-oxo-1,2-dihydroisoquinolin-4-yl)ethyl)-3-(4-fluorophenyl)-1-(3-hydroxypropyl) urea]", "values": [{"measurement": "EC50", "setting": "[1]", "result": 0.01, "unit": "µM"}]}
{"compound": "CC(c1c[nH]c(=O)c2cc(F)c(F)cc12)N(C)C(=O)Nc1ccc(F)c(C(F)F)c1", "note": "(single isomer, unassigned) [Compound 502, 1-(1-(6,7-Difluoro-1-oxo-1,2-dihydroisoquinolin-4-yl)ethyl)-3-(3-(difluoromethyl)-4-fluorophenyl)-1-methylurea]", "values": [{"measurement": "EC50", "setting": "[1]", "result": 0.017, "unit": "µM"}]}
{"compound": "CC(c1c[nH]c(=O)c2cc(F)c(F)cc12)N(C)C(=O)Nc1cccc(Cl)c1", "note": "(single isomer, unassigned) [Compound 413, 1-(1-(6,7-Difluoro-1-oxo-1,2-dihydroisoquinolin-4-yl)ethyl)-3-(3-chlorophenyl)-1-methylurea]", "values": [{"measurement": "EC50", "setting": "[4]", "result": 0.018, "unit": "µM"}]}
{"compound": "CC(c1c[nH]c(=O)c2c(F)c(F)ccc12)N(C)C(=O)Nc1cccc(Cl)c1", "note": "(single isomer, unassigned) [Compound 460, 3-(3-Chlorophenyl)-1-(1-(7,8-difluoro-1-oxo-1,2-dihydroisoquinolin-4-yl)ethyl)-1-methylurea]", "values": [{"measurement": "EC50", "setting": "[4]", "result": 0.61, "unit": "µM"}]}
{"compound": "CC(c1c[nH]c(=O)c2cc(F)c(F)cc12)N(C)C(=O)Nc1cc(Cl)cc(Cl)c1", "note": "(single isomer, unassigned) [Compound 416, 3-(3,5-Dichlorophenyl)-1-(1-(6,7-difluoro-1-oxo-1,2-dihydroisoquinolin-4-yl)ethyl)-1-methylurea]", "values": [{"measurement": "EC50", "setting": "[4]", "result": 10, "unit": "µM"}]}
{"compound": "COc1ncc(C(C)N(C(=O)Nc2ccc(F)c(Cl)c2)C2CC2)c2ccccc12", "note": "(single isomer, unassigned) [Compound 56, 3-(3-Chloro-4-fluorophenyl)-1-cyclopropyl-1-(1-(1-methoxyisoquinolin-4-yl)ethyl)urea]", "values": [{"measurement": "EC50", "setting": "[2]", "result": 13, "unit": "µM"}]}
{"compound": "CC(c1c[nH]c(=O)c2c(F)cccc12)N(CCCO)C(=O)Nc1ccc(F)c(Cl)c1", "note": "(single isomer, unassigned) [Compound 366, 3-(3-Chloro-4-fluorophenyl)-1-(1-(8-fluoro-1-oxo-1,2-dihydroisoquinolin-4-yl)ethyl)-1-(3-hydroxypropyl)urea]", "values": [{"measurement": "EC50", "setting": "[1]", "result": 11, "unit": "µM"}]}
{"compound": "CC(c1cn(CC(F)(F)F)c(=O)c2ccccc12)N(C)C(=O)Nc1ccc(F)c(Cl)c1", "note": "(racemic) [Compound 228, 3-(3-Chloro-4-fluorophenyl)-1-methyl-1-(1-(1-oxo-2-(2,2,2-trifluoroethyl)-1,2-dihydroisoquinolin-4-yl)ethyl)urea]", "values": [{"measurement": "EC50", "setting": "[3]", "result": 0.78, "unit": "µM"}]}
{"compound": "CC(c1c[nH]c(=O)c2cc(F)c(F)cc12)N(C)C(=O)Nc1ccnc(Cl)c1", "note": "(single isomer, unassigned) [Compound 419, 3-(2-Chloropyridin-4-yl)-1-(1-(6,7-difluoro-1-oxo-1,2-dihydroisoquinolin-4-yl)ethyl)-1-methylurea]", "values": [{"measurement": "EC50", "setting": "[1]", "result": 0.048, "unit": "µM"}]}
{"compound": "CC(c1c[nH]c(=O)c2ccccc12)N(CC(=O)N(C)C)C(=O)Nc1ccc(F)c(Cl)c1", "note": "(racemic) [Compound 147, 2-(3-(3-Chloro-4-fluorophenyl)-1-(1-(1-oxo-1,2-dihydroisoquinolin-4-yl)ethyl)ureido)-N,N-dimethylacetamide]", "values": [{"measurement": "EC50", "setting": "[3]", "result": 0.84, "unit": "µM"}]}
{"compound": "C[C@H](c1c[nH]c(=O)c2ccccc12)N(C)C(=O)Nc1ccc(Cl)cc1", "note": "[Compound 293, (R)-3-(4-Chlorophenyl)-1-methyl-1-(1-(1-oxo-1,2-dihydroisoquinolin-4-yl)ethyl)urea]", "values": [{"measurement": "EC50", "setting": "Hepatitis B virus, HepDE19, read-out: DE-19bDNA EC50 (μM), HepDE19 assay, inhibition of formation of relaxed circular DNA (rcDNA), bDNA quantitation", "result": 0.34, "unit": "µM"}]}
{"compound": "CC(c1c[nH]c(=O)c2ccccc12)N(CC1CCOC1)C(=O)Nc1ccc(F)c(Cl)c1", "note": "(stereo not shown) [Compound 175]", "values": [{"measurement": "EC50", "setting": "[2]", "result": 0.85, "unit": "µM"}]}
{"compound": "CC(c1c[nH]c(=O)c2ccccc12)N(Cc1ccncc1)C(=O)Nc1ccc(F)c(Cl)c1", "note": "(single isomer, unassigned) [Compound 309, 3-(3-Chloro-4-fluorophenyl)-1-(1-(1-oxo-1,2-dihydroisoquinolin-4-yl)ethyl)-1-(pyridin-4-ylmethyl) urea]", "values": [{"measurement": "EC50", "setting": "[1]", "result": 11, "unit": "µM"}]}
{"compound": "CC(c1c[nH]c(=O)c2ccccc12)N(CCNCC(F)(F)F)C(=O)Nc1ccc(F)c(Cl)c1", "note": "(single isomer, unassigned) [Compound 163, 3-(3-Chloro-4-fluorophenyl)-1-(1-(1-oxo-1,2-dihydroisoquinolin-4-yl)ethyl)-1-(2-((2,2,2-trifluoroethyl)amino)ethyl)urea]", "values": [{"measurement": "EC50", "setting": "[2]", "result": 5.3, "unit": "µM"}]}
{"compound": "CCN(C(=O)Nc1ccc(F)c(Cl)c1)C(c1ccccc1)c1cnc(OC)c2ccccc12", "note": "(single isomer, unassigned) [Compound 60, 3-(3-Chloro-4-fluorophenyl)-1-ethyl-1-((1-methoxyisoquinolin-4-yl)(phenyl)methyl)urea]", "values": [{"measurement": "EC50", "setting": "[2]", "result": 8.8, "unit": "µM"}]}
{"compound": "CC(C)CN(C(=O)Nc1ccc(F)c(Cl)c1)C(C)c1c[nH]c(=O)c2cc(F)c(F)cc12", "note": "(single isomer, unassigned) [Compound 280, 3-(3-Chloro-4-fluorophenyl)-1-(1-(6,7-difluoro-1-oxo-1,2-dihydroisoquinolin-4-yl)ethyl)-1-isobutylurea]", "values": [{"measurement": "EC50", "setting": "[3]", "result": 0.21, "unit": "µM"}]}
{"compound": "CCN(C(=O)Nc1ccc(F)c(Cl)c1)C(C)c1c[nH]c(=O)c2cc(F)c(F)cc12", "note": "(single isomer, unassigned) [Compound 407, 3-(3-Chloro-4-fluorophenyl)-1-(1-(6,7-difluoro-1-oxo-1,2-dihydroisoquinolin-4-yl)ethyl)-1-ethylurea]", "values": [{"measurement": "EC50", "setting": "[1]", "result": 0.006, "unit": "µM"}]}
{"compound": "C[C@@H](c1c[nH]c(=O)c2ccccc12)N(C)C(=O)Nc1ccc(F)c(Cl)c1", "note": "[Compound 13, 3-(3-Chloro-4-fluorophenyl)-1-methyl-1-(1-(1-oxo-1,2-dihydroisoquinolin-4-yl)ethyl)urea]", "values": [{"measurement": "EC50", "setting": "[3]", "result": 4.7, "unit": "µM"}]}
{"compound": "CCN(C(=O)Nc1ccc(F)cc1)C(C)c1c[nH]c(=O)c2c(F)c(F)ccc12", "note": "(single isomer, unassigned) [Compound 465, 1-(1-(7,8-Difluoro-1-oxo-1,2-dihydroisoquinolin-4-yl)ethyl)-1-ethyl-3-(4-fluorophenyl)urea]", "values": [{"measurement": "EC50", "setting": "[1]", "result": 0.019, "unit": "µM"}]}
{"compound": "CC(c1c[nH]c(=O)c2cc(F)c(F)cc12)N(C)C(=O)Nc1ccc(F)c(Cl)c1", "note": "(single isomer, unassigned) [Compound 278, 3-(3-Chloro-4-fluorophenyl)-1-(1-(6,7-difluoro-1-oxo-1,2-dihydroisoquinolin-4-yl)ethyl)-1-methylurea]", "values": [{"measurement": "EC50", "setting": "[3]", "result": 1, "unit": "µM"}]}
{"compound": "COCCOCCN(C(=O)Nc1ccc(F)c(Cl)c1)C(C)c1cnc(OC)c2ccccc12", "note": "(single isomer, unassigned) [Compound 121, 3-(3-Chloro-4-fluorophenyl)-1-(2-(2-methoxyethoxy)ethyl)-1-(1-(1-methoxyisoquinolin-4-yl)ethyl)urea]", "values": [{"measurement": "EC50", "setting": "[2]", "result": 23, "unit": "µM"}]}
{"compound": "CC(NC(=O)Nc1ccc(F)c(Cl)c1)c1c[nH]c(=O)c2ccccc12", "note": "(single isomer, unassigned) [Compound 10, 1-(3-Chloro-4-fluorophenyl)-3-(1-(1-oxo-1,2-dihydroisoquinolin-4-yl)ethyl)urea]", "values": [{"measurement": "EC50", "setting": "[3]", "result": 3.4, "unit": "µM"}]}
{"compound": "CC(c1c[nH]c(=O)c2ccc(F)cc12)N(CC1COC(C)(C)OC1)C(=O)Nc1ccc(F)c(Cl)c1", "note": "(single isomer, unassigned) [Compound 282, 3-(3-Chloro-4-fluorophenyl)-1-((2,2-dimethyl-1,3-dioxan-5-yl)methyl)-1-(1-(6-fluoro-1-oxo-1,2-dihydroisoquinolin-4-yl)ethyl)urea]", "values": [{"measurement": "EC50", "setting": "[1]", "result": 4, "unit": "µM"}]}
